This note sets out measurements from patent US20230096028A1, “BICYCLIC HETEROCYCLYL COMPOUNDS AND USES THEREOF” (Revolution Medicines, Inc., priority 2019, published 2023).

Experiment [1] concerns the target T1, SOS1 (Homo sapiens, UniProt Q07889).
T1 construct: SOS1 (Cytoskeleton Inc., Cat. CS-GE02); purchased Cytoskeleton Inc. CS-GE02
T1 sequence (Q07889 564-1049 limits assumed): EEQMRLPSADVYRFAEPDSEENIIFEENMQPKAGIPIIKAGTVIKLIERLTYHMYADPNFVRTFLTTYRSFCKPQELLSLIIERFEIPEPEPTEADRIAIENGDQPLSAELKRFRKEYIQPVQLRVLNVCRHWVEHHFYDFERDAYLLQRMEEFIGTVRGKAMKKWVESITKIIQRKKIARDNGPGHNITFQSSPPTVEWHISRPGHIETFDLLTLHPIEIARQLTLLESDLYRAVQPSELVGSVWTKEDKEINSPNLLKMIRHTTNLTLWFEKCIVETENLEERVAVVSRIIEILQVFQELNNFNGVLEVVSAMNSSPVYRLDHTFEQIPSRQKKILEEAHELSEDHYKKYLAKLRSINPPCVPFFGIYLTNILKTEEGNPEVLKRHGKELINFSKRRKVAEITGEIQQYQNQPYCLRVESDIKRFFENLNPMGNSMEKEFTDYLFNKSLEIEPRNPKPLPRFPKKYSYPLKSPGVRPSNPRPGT
The experiment is described as follows: Bodipy-FL-GTP Association Assay (SOS1-mediated exchange of KRAS-4B:GDP to KRAS-4B:GTP). In kind it is biochemical. To be noted: SOS1-mediated BODIPY FL GTP exchange on KRAS-4B, 22° C. The protocol:
A low IC50 value for a given compound is indicative of high potency of said compound in inhibiting the guanine nucleotide exchange factor (GEF) activity of SOS1 on KRAS-4B in this assay setting.
Reagents: BODIPY FL GTP (ThermoFisher Scientific, Cat. G12411); KRAS4-B (Cytoskeleton Inc., Cat. CSRS03); SOS1 (Cytoskeleton Inc., Cat. CS-GE02); 2×Assay Buffer: 40 mM Tris-HCl, pH 7.5; 100 mM NaCl; 20 mM MgCl2; 0.1 mg/mL BSA; 0.02% NP-40
Assay Procedure: Test compounds were dissolved in DMSO to create 20 mM master stocks. The stocks were diluted in a 3× dilution series in 100% DMSO to achieve 100× compound stocks. A 1 μl spot of each test compound stock was delivered to two adjacent wells of a 96-well assay plate prior to running the assay. Reaction Mix preparation: The following were mixed in order at room temperature to obtain the “Reaction Mix” (5.75 mL 2× Exchange Buffer; 3.22 mL MilliQ ddH2O; 3 μL 5 mM BODIPY FL GTP; 230 μL 50 μM KRAS-4B; 9.203 mL Total volume. Reaction initiation: 80 μL of Reaction Mix was pipetted into each well of a half-area black 96-well plate (Corning, Cat. 3686) containing either a 1 μL spot of DMSO or a 1 μL spot test compound at the concentrations listed above. 20 μL of 1 μM SOS1 was then added to each well to initiate the reaction. For the no GEF control wells this was replaced with 1× exchange buffer. Kinetic measurement: The reaction was monitored in a SpectraMax M2 Microplate Reader (Molecular Devices) under the following protocol: 5 second rapid circular mixing before first read; 61 readings, 30 seconds apart; Assay temperature: 22° C.; Excitation wavelength: 485 nm; Emission wavelength: 513 nm. Data Analysis: The Vmax values for the SOS1-mediated BODIPY FL GTP exchange curves in the presence of test compounds were normalized to the most dilute test sample columns or DMSO only control wells to give the % Activity for each concentration of test compound. Plots of % Activity vs. the Log 10 of the compound concentration were fit by non-linear regression to a 4-parameter logistic model.

Experiment [2] concerns the target T2, SOS1 catalytic domain (residues 564-1049) (Homo sapiens, UniProt Q07889).
T2 sequence (Q07889 564-1049): T1 sequence (Q07889 564-1049 limits assumed)
The experiment is described as follows: Mode of Action Assay: inhibition of SOS1 nucleotide exchange activity (SOS1 TR-FRET IC50 Assay). (In general: In TR-FRET formats the signal depends on donor and acceptor labels being close together.)
Procedure: The purpose of this assay was to characterize the inhibitory activity of compounds on SOS1 nucleotide exchange of KRAS. Data was reported as IC50 values based on the TR-FRET signal.
Note—the following protocol describes a procedure for monitoring the inhibition of SOS1 nucleotide exchange activity of wild-type KRAS in response to a compound of the invention.
The SOS1/compound mixture was incubated at room temperature with constant mixing on an orbital shaker for 20 minutes to allow the reaction to reach equilibrium. […] This mixture was prepared immediately before addition to the SOS1/compound mixture to prevent intrinsic nucleotide exchange. Then 5 μL of the pre-incubated SOS1/compound mixture and 7.5 μL of the KRAS mixture were added sequentially in a 384-well low volume black round bottom plate and incubated at room temperature with constant shaking for 30 minutes. Time-resolved fluorescence was measured on a PerkinElmer Envision plate reader.
Three replicates were performed for each compound. Data were normalized by the following: (Positive control−Sample signal)/(Positive control−negative control)*100. The data were fit using a four-parameter logistic fit.

Experiment [3] has as its system PC-9 cells (EGFR Ex19Del). The experiment is described as follows: Potency Assay: pERK (SOS1 pERK IC50 Assay, AlphaLISA SureFire Ultra p-ERK1/2). The experiment is classed as cell-based. To be noted: Homo sapiens; PC-9 cells (EGFR Ex19Del), 1 hour incubation, AlphaLISA p-ERK1/2; read-out: SOS1 pERK IC50. In a few lines:
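Cellular pERK1/2 by AlphaLISA SureFire Ultra after 1 h compound exposure (37° C., highest concentration 10 μM, 3-fold steps, duplicates) of EGFR Ex19Del PC-9 cells seeded the day before. A 4-parameter fit of signal versus log concentration gives IC50.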

Experiment [4] addresses T2, SOS1 catalytic domain (residues 564-1049). The experiment is described as follows: Potency Assay: binding affinity to SOS1 using Surface Plasmon Resonance (SPR). Also noted: SOS1 catalytic domain (residues 564-1049) immobilized on a sensor chip. The conditions noted are these: immobilized SOS1 catalytic domain (residues 564-1049), read-out: SOS1 SPR Equilibrium Kd. In a few lines:
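Kd was obtained by plotting binding response, taken just before association ended, versus compound concentration on a Biacore 8K. Compounds flowed at 50 μL/min over streptavidin-captured avi-SOS1 catalytic domain (~6000 RU), followed by buffer dissociation; HEPES 0.01 M/NaCl 0.15 M/0.05% P20 buffer, double-referenced.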

Structures are written as SMILES.

Consider `C[C@@H](Nc1nc(Cl)nc2c1CN(C(=O)N1CCOCC1)C2)c1cc(N)cc(C(F)(F)F)c1` [Example 1, N-[(1R)-1-[3-amino-5-(trifluoromethyl)phenyl]ethyl]-2-chloro-6-(morpholine-4-carbonyl)-5H,6H,7H-pyrrolo[3,4-d]pyrimidin-4-amine], for which, in experiment [1], the IC50 (as a rule, the concentration that inhibits the measured activity by half) was under 1000 nM.
Same read-out and setting: in the case of `Cc1nc2c(c(N[C@H](C)c3cc(N)cc(C(F)(F)F)c3)n1)CN(C(=O)N1CCOCC1)CC2` [Example 2, N-[(1R)-1-[3-amino-5-(trifluoromethyl)phenyl]ethyl]-2-methyl-6-(morpholine-4-carbonyl)-5H,6H,7H,8H-pyrido[4,3-d]pyrimidin-4-amine] it was 1000 to 5000 nM; in that of `C[C@@H](Nc1nc(Cl)nc2c1CN(C(=O)N1CCOCC1)CC2)c1cc(N)cc(C(F)(F)F)c1` [Example 3, N-[(1R)-1-[3-amino-5-(trifluoromethyl)phenyl]ethyl]-2-chloro-6-(morpholine-4-carbonyl)-5H,6H,7H,8H-pyrido[4,3-d]pyrimidin-4-amine], under 1000 nM.
Still for that read-out and setting: under `Cc1nc2c(c(N[C@H](C)c3cc(N)cc(C(F)(F)F)c3)n1)CN(C(=O)N1CCOCC1)C2` [Example 4, N-[(1R)-1-[3-amino-5-(trifluoromethyl)phenyl]ethyl]-2-methyl-6-(morpholine-4-carbonyl)-5H,6H,7H-pyrrolo[3,4-d]pyrimidin-4-amine] stands under 1000 nM.
`C[C@@H](Nc1nc(Cl)nc2c1CN(C(=O)C1CCOC1)C2)c1cc(N)cc(C(F)(F)F)c1` (stereo partly drawn) [Example 5, N-[(1R)-1-[3-amino-5-(trifluoromethyl)phenyl]ethyl]-2-chloro-6-(oxolane-3-carbonyl)-5H,6H,7H-pyrrolo[3,4-d]pyrimidin-4-amine] came in with an IC50 in experiment [1] of under 1000 nM.
The same measure, in the same setting: under `Cc1nc2c(c(N[C@H](C)c3cc(N)cc(C(F)(F)F)c3)n1)CN(C(=O)[C@H]1CCOC1)CC2` [Example 6, N-[(1R)-1-[3-amino-5-(trifluoromethyl)phenyl]ethyl]-2-methyl-6-(oxolane-3-carbonyl)-5H,6H,7H,8H-pyrido[4,3-d]pyrimidin-4-amine] stands 1000 to 5000 nM; under `C[C@@H](Nc1nc(Cl)nc2c1CCN(C(=O)C1CCOC1)CC2)c1cc(N)cc(C(F)(F)F)c1` (stereo partly drawn) [Example 7, N-[(1R)-1-[3-amino-5-(trifluoromethyl)phenyl]ethyl]-2-chloro-7-(oxolane-3-carbonyl)-5H,6H,7H,8H,9H-pyrimido[4,5-d]azepin-4-amine], 1000 to 5000 nM; under `C[C@@H](Nc1nc(Cl)nc2c1CN([C@H]1CC[C@@H](O)CC1)C2)c1cc(N)cc(C(F)(F)F)c1` [Example 8, cis-4-(4-{[(1R)-1-[3-amino-5-(trifluoromethyl)phenyl]ethyl]amino}-2-chloro-5H,6H,7H-pyrrolo[3,4-d]pyrimidin-6-yl)cyclohexan-1-ol], over 5000 nM.
On the same count and under the same terms, in the case of `C[C@@H](Nc1nc(Cl)nc2c1CN([C@H]1CC[C@H](O)CC1)C2)c1cc(N)cc(C(F)(F)F)c1` [Example 9, trans-4-(4-{[(1R)-1-[3-amino-5-(trifluoromethyl)phenyl]ethyl]amino}-2-chloro-5H,6H,7H-pyrrolo[3,4-d]pyrimidin-6-yl)cyclohexan-1-ol] it was over 5000 nM; in that of `C[C@@H](Nc1nc(Cl)nc2c1CN([C@H]1CC[C@@H](C(=O)N(C)C)CC1)C2)c1cc(N)cc(C(F)(F)F)c1` [Example 10, cis-4-(4-{[(1R)-1-[3-amino-5-(trifluoromethyl)phenyl]ethyl]amino}-2-chloro-5H,6H,7H-pyrrolo[3,4-d]pyrimidin-6-yl)-N,N-dimethylcyclohexane-1-carboxamide], 1000 to 5000 nM.
Still for that read-out and setting: in the case of `C[C@@H](Nc1nc(Cl)nc2c1CCN(CC1CCOC1)CC2)c1cc(N)cc(C(F)(F)F)c1` (stereo partly drawn) [Example 11] it was 1000 to 5000 nM; in that of `Cc1nc2c(c(N[C@H](C)c3cc(N)cc(C(F)(F)F)c3)n1)CN(CC1CCOC1)CC2` (stereo partly drawn) [Example 12], under 1000 nM.
`Cc1nc2c(c(N[C@H](C)c3cc(N)cc(C(F)(F)F)c3)n1)CN(CC1CCOC1)C2` (stereo partly drawn) [Example 13]: the IC50 in experiment [1] was in the range of 1000 to 5000 nM.
Same read-out and setting: in the case of `COc1nc2c(c(N[C@H](C)c3cc(N)cc(C(F)(F)F)c3)n1)CN(C(=O)N1CCOCC1)C2` [Example 14] it was under 1000 nM; in that of `C[C@@H](Nc1nc(O)nc2c1CN(C(=O)N1CCOCC1)C2)c1cc(N)cc(C(F)(F)F)c1` [Example 15], 1000 to 5000 nM.
`C[C@@H](Nc1ncnc2c1CN(C(=O)N1CCOCC1)C2)c1cc(N)cc(C(F)(F)F)c1` [Example 16] yielded an IC50 in experiment [1] of under 1000 nM.
Still for that read-out and setting: in the case of `C[C@@H](Nc1ncnc2c1CN(C(=O)C1CCN(C)CC1)C2)c1cc(N)cc(C(F)(F)F)c1` [Example 17] it was under 1000 nM; in that of `C[C@@H](Nc1nc(Cl)nc2c1CN(C(=O)C1CCN(C)CC1)C2)c1cc(N)cc(C(F)(F)F)c1` [Example 18], under 1000 nM.
Same read-out and setting: under `C[C@@H](Nc1nc(Cl)nc2c1CN([C@H]1CC[C@H](C(=O)N(C)C)CC1)C2)c1cc(N)cc(C(F)(F)F)c1` [Example 19] stands 1000 to 5000 nM; under `C[C@@H](Nc1nc(Cl)nc2c1CN(CC1CCOC1)C2)c1cc(N)cc(C(F)(F)F)c1` (stereo partly drawn) [Example 20], under 1000 nM.
The same measure, in the same setting: in the case of `Cc1nc2c(c(N[C@H](C)c3cc(N)cc(C(F)(F)F)c3)n1)CN(C(=O)C1CCN(C)CC1)C2` [Example 21] it was under 1000 nM.
In the case of `C[C@@H](Nc1nc(Cl)nc2c1CN(C(=O)N1CCOCC1)C2)c1cccc(C(F)F)c1F` [Example 537], the IC50 in experiment [2] and in experiment [3] was under 1000 nM throughout. The Kd (commonly the concentration at which binding is half-saturated) in experiment [4] is under 400 nM.
With `C[C@@H](Nc1nc(Cl)nc2c1CN(C(=O)N1CCOCC1)C2)c1cccc(C(F)(F)C2COCCN2)c1` (stereo partly drawn) [Example 538, (2-chloro-4-(((1R)-1-(3-(difluoro(morpholin-3-yl)methyl)phenyl)ethyl)amino)-5,7-dihydro-6H-pyrrolo[3,4-d]pyrimidin-6-yl)(morpholino)methanone], the results for the IC50 in experiment [2] and in experiment [3] were under 1000 nM and over 1000 nM, respectively. In experiment [4], the Kd is under 400 nM.
For `C[C@@H](Nc1nc(CN2CCOCC2)nc2c1CN(C(=O)N1CCOCC1)C2)c1cccc(C(F)F)c1F` [Example 539], in that order: under 1000 nM, over 1000 nM and over 400 nM.
